The target of assay [1] is T1, poly(ADP-ribose) polymerase 1 (PARP1) (Homo sapiens, UniProt P09874).
T1 construct: made in house; host or cells: insect cells (baculovirus expression system)
The experiment in a line: PARP1 auto-poly(ADP-ribosyl)ation with [32P]-NAD+. In kind it is biochemical. As to conditions: compound 500 μM, PARP1 200 nM, 0.3 mM [32P]-NAD+, 2 min, 37 °C; mean ± SD; read-out: PARP1 % of residual activity (500 μM). An excerpt: (§1) Recombinant human proteins tyrosyl-DNA phosphodiesterase 1 (TDP1) and tyrosyl-DNA phosphodiesterase 2 (TDP2) were expressed in the E. coli system, poly(ADP-ribose) polymerase 1 (PARP1) and poly(ADP-ribose) polymerase 2 (PARP2) were expressed in insect cells using a baculovirus expression system and purified as described in (Sukhanova et al., 2004; Sherstyuk et al., 2019; Dyrkheeva et al., 2020, 2021).
(§2) Determination of PARP1 and PARP2 activity. For determination of PARP1 and PARP2 enzyme activity in the presence and absence of test compounds, radiolabeled [32P]-NAD⁺ was synthesized from α-[32P]-ATP according to the protocol (Sherstyuk et al., 2019). The auto-poly(ADPribosyl) ation reaction was performed in buffer for PARP1: 50 mM Tris-HCl, pH 8.0, 10 mM MgCl2, 150 mM NaCl, and 7 mM β-mercaptoethanol, as well as 2 A260 units/ml activated DNA, 0.3 mM [32P]-NAD⁺ at 37 °C. The reaction was initiated by addition of PARP1 to 200 nM and carried out for 2 min
(§3) The buffer for PARP2 contained: 50 mM Tris-HCl, pH 8.0, 3 mM spermine, 150 mM NaCl, and 7 mM β-mercaptoethanol, 2 A260 units/ml activated DNA, 0.6 mM [32P]-NAD⁺ at 37 °C. The reaction was initiated by addition of PARP2 to 600 nM, and the reaction mixtures were incubated for 5 min. The reaction was stopped by placing 5 μl aliquots on Whatman 1 paper filters impregnated with 5 % trichloroacetic acid (TCA). The filters were washed with 5 % TCA four times and air-dried after removal of TCA with 90 % ethanol. The incorporation of the radioactive label into the reaction product was calculated using a Typhoon FLA 9500 scanner (GE Healthcare, Chicago, Illinois, USA). At least three independent experiments were performed.

The target of assay [2] is T2, tyrosyl-DNA phosphodiesterase 2 (TDP2) (Homo sapiens, UniProt O95551).
T2 construct: made in house; host or cells: E. coli
T2 sequence (O95551 1-362): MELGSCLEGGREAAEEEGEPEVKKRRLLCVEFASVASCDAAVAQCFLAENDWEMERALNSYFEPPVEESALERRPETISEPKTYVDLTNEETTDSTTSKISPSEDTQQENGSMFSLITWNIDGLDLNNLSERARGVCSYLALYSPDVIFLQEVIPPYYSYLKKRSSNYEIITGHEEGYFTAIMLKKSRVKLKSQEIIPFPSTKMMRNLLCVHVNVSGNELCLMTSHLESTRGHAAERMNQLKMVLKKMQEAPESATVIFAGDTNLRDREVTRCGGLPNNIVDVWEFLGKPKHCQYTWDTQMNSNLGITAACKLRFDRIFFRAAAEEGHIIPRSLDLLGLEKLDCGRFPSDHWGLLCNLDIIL
The experiment in a line: TDP2 activity, removal of 5′-tyrosine from oligonucleotide substrate, denaturing PAGE. In kind it is biochemical. As to conditions: inhibitor 500 μM, TDP2 200 nM, substrate 100 nM, 10 min, 37 °C; mean ± SD; read-out: TDP2 % of residual activity (500 μM).
Text: as §1
Determination of TDP2 activity. For determination of TDP2 enzyme activity, an oligonucleotide 5′-tyrosine-AAC GTC AGG GTC TTC C-FAM-3′ containing a 6-FAM label at the 3′-end and an L-tyrosine residue attached via the phenolic OH group to the 5′-terminal phosphate was used as substrate, synthesized at the Russian-French-Japanese Laboratory of Bionanotechnology of Novosibirsk State University as described in (Dyrkheeva et al., 2021). The substrate at a concentration of 100 nM was incubated with TDP2 at a concentration of 200 nM in the absence or presence of inhibitor (500 μM) for 10 min at 37 °C in buffer containing 50 mM Tris-HCl, pH 8.0, 50 mM NaCl, 7 mM β-mercaptoethanol (Dyrkheeva et al., 2021). The reaction was stopped by addition of PAGE loading buffer (TBE, 10 % formamide, 7 M urea, 20 mM EDTA, 0.1 % xylene cyanol, and 0.1 % bromophenol blue). The samples were then heated at 90 °C for 5 min. The enzymatic reaction products were separated by electrophoresis in 20 % denaturing PAGE with 7 M urea at an acrylamide to bisacrylamide ratio of 19:1. A high-resolution Typhoon FLA 9500 laser scanner (GE Healthcare, Chicago, Illinois, USA) was used for gel scanning and visualization, and the data were analyzed using QuantityOne 4.6.7 software (Bio- Rad Laboratories, Inc., Hercules, California, USA). At least three independent experiments were performed, and statistical processing was carried out using OriginPro 8.6.0 (OriginLab, Northampton, Massachusetts, USA).
To study the effect of the studied compounds on TDP2 activity, we tested the ability of this enzyme to remove the tyrosine residue from the 5′-end of the oligonucleotide substrate in the absence and presence of inhibitors, as described in (Dyrkheeva et al., 2021).

For assay [3], the system named is poly(ADP-ribose) polymerase 2 (PARP2). The experiment in a line: PARP2 auto-poly(ADP-ribosyl)ation with [32P]-NAD+. The assay is classed as biochemical, human. The following applies: compound 500 μM, PARP2 600 nM, 0.6 mM [32P]-NAD+, 5 min, 37 °C; mean ± SD.
Text: as §1, §2, §3

The target in assay [4] is T3, tyrosyl-DNA phosphodiesterase 1 (TDP1) (Homo sapiens, UniProt Q9NUW8).
T3 construct: made in house; host or cells: E. coli
T3 sequence (Q9NUW8 whole entry): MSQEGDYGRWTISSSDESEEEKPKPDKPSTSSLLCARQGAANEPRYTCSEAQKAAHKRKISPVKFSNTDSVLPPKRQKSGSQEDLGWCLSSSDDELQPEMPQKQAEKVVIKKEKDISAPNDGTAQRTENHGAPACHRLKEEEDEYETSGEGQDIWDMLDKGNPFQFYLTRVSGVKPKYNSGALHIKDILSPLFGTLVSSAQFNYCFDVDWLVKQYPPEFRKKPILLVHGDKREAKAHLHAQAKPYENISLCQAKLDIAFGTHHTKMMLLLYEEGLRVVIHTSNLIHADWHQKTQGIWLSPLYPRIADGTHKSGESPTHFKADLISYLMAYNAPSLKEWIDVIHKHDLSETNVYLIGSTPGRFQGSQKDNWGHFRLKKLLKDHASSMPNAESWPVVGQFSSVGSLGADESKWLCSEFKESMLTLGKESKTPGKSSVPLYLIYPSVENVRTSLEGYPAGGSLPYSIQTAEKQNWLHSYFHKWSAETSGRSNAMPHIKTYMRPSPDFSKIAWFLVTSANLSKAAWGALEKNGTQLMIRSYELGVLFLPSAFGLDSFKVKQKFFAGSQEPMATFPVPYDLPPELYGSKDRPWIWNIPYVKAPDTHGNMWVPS
The experiment in a line: Real-time fluorescent detection of TDP1 activity (BHQ1 cleavage from 3′-end of single-stranded FAM oligonucleotide). The assay is classed as biochemical. As to conditions: recombinant TDP1 1.5 nM, 50 nM single-stranded oligonucleotide, 26 °C; mean ± SD, at least three replicates. How it is done:
as §1
Determination of TDP1 activity. The reaction mixture (200 μl) for real-time fluorescent detection of TDP1 enzyme activity (Zakharenko et al., 2015) contained TDP1 reaction buffer (50 mM Tris-HCl, pH 8.0, 50 mM NaCl, and 7 mM β-mercaptoethanol), 50 nM oligonucleotide 5′-FAM-AAC GTC AGG GTC TTC C-BHQ1-3′, the test compound at various concentrations, and TDP1 at a final concentration of 1.5 nM. The reaction mixtures were incubated at a constant temperature of 26 °C in a POLARstar OPTIMA microplate fluorometer (BMG LABTECH, GmbH, Ortenberg, Germany). Fluorescence intensity (Ex485/Em520 nm) was measured every minute for 10 min. Mean values of half-maximal inhibitory concentration (IC50 – the concentration of the compound that inhibited 50 % of enzyme activity compared to the untreated control well containing only enzyme and substrate) were determined using a dose-response curve of the fluorescence signal level versus inhibitor concentration and calculated using MARS Data Analysis 2.0 (BMG LABTECH). Kinetic curves were obtained in at least three independent experiments and statistically processed in OriginPro 8.6.0 (OriginLab, Northampton, Massachusetts, USA).
The third group of compounds includes derivatives of the monomeric compound MB2Py(Ac), which is an isosteric analog of MB3, due to the fact that the pyrrolecarboxamide fragment contained in its structure can act as a hydrogen atom donor at the carboxamide nitrogen for hydrogen bond formation, in a position analogous to benzimidazole. Dimeric derivatives are represented by the DB2Py(n) series containing n-alkyldicarboxylic acids as a linker. This series is represented by a set of compounds containing 1, 3, 4, 5, 7, 9, and 11 methylene units, which allowed for a more accurate assessment of the dependence of the inhibitory activity of compounds on spacer length. The DB2Py(n) series differs from the DB3(n) series by the presence, in addition to the bisbenzimidazole structure, of a pyrrolecarboxamide structure, which is a fragment of the AT-specific antibiotic netropsin.Using the real-time fluorescence analysis method, halfmaximal inhibitory concentration (IC50) values of the studied compounds (see the Table) were obtained in the reaction of BHQ1 cleavage from the 3′-end of the oligonucleotide by TDP1, which led to an increase in FAM fluorescence at the 5′-end of the chain (Zakharenko et al., 2015). It should also be noted that a single-stranded oligonucleotide was used as substrate to exclude the binding of dimeric bisbenzimidazoles as minor-groove ligands to the DNA substrate and direct their action toward the enzymatic target.

T1 sequence (P09874 whole entry): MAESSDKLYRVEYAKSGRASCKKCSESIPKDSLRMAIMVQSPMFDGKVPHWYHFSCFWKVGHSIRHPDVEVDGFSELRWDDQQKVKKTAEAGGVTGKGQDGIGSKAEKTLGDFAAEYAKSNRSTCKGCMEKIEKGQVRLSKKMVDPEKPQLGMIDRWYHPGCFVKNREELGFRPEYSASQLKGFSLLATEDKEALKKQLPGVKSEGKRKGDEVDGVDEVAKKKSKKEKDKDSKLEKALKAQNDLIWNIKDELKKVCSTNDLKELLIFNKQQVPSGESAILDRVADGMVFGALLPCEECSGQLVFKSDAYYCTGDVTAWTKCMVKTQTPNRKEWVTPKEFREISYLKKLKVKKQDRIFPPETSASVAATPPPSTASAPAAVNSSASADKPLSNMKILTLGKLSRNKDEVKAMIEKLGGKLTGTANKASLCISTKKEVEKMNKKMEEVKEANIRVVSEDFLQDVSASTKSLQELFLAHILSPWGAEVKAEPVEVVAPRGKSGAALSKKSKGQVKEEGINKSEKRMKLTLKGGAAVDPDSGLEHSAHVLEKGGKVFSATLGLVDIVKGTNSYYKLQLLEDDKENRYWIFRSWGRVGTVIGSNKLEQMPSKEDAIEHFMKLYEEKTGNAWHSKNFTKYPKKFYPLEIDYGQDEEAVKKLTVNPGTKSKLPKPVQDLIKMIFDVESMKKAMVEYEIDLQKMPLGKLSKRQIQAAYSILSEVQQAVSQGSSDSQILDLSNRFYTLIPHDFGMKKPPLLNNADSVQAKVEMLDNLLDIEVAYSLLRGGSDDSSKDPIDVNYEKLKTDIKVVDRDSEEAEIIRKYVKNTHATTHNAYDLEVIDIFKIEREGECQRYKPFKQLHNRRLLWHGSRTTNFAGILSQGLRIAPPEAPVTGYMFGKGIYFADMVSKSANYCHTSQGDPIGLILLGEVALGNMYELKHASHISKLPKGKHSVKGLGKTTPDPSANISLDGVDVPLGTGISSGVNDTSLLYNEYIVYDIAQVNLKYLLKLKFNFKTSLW

`CCCn1cc(NC(=O)CCCCC(=O)Nc2cc(-c3nc4ccc(-c5nc6ccc(N7CCN(C)CC7)cc6[nH]5)cc4[nH]3)n(CCC)c2)cc1-c1nc2ccc(-c3nc4ccc(N5CCN(C)CC5)cc4[nH]3)cc2[nH]1` [DB2Py(4)]: the remaining activity at 500 µM in assay [1] and in assay [2] was roughly 100% in each case. Besides, in assay [3], the “PARP2 % of residual activity (500 μM)” value was ~ 100%. The half-inhibitory concentration (IC50) (usually the concentration that inhibits the measured activity by half) in assay [4] was determined as 400 ± 150 nM.
Consider `CN1CCN(c2ccc3nc(-c4ccc5nc(CNC(=O)CCN6CCN(CCC(=O)NCc7nc8ccc(-c9nc%10ccc(N%11CCN(C)CC%11)cc%10[nH]9)cc8[nH]7)CC6)[nH]c5c4)[nH]c3c2)CC1` [DB2P(2)], for which the values for the remaining activity at 500 µM in assay [1] and in assay [2] were 51 ± 15% and 44 ± 11%, respectively. Moreover, the “PARP2 % of residual activity (500 μM)” value in assay [3] is recorded as 80 ± 20%. Moreover, the IC50 in assay [4] came out at 9000 ± 3000 nM.
Regarding `CN1CCN(c2ccc3nc(-c4ccc5nc(-c6ccc7nc(CNC(=O)CCCCCC(=O)NCc8nc9ccc(-c%10nc%11ccc(-c%12nc%13ccc(N%14CCN(C)CC%14)cc%13[nH]%12)cc%11[nH]%10)cc9[nH]8)[nH]c7c6)[nH]c5c4)[nH]c3c2)CC1` [DB3(5)], the figures for the remaining activity at 500 µM in assay [1] and in assay [2] were 62 ± 16% and 65 ± 10%, respectively. For the same molecule, in assay [3], the “PARP2 % of residual activity (500 μM)” value is listed as ~ 100%. Moreover, the IC50 in assay [4] is greater than 50000 nM.
On the same counts, the results for `CN1CCN(c2ccc3nc(-c4ccc5nc(CNC(=O)CCCCN6CCN(CCCCC(=O)NCc7nc8ccc(-c9nc%10ccc(N%11CCN(C)CC%11)cc%10[nH]9)cc8[nH]7)CC6)[nH]c5c4)[nH]c3c2)CC1` [DB2P(4)] are 33 ± 13%, 44 ± 11%, 85 ± 13% and 2300 ± 300 nM.
On the same counts, the results for `CN1CCN(c2ccc3nc(-c4ccc5nc(-c6ccc7nc(CNC(=O)CCCN8CCN(CCCC(=O)NCc9nc%10ccc(-c%11nc%12ccc(-c%13nc%14ccc(N%15CCN(C)CC%15)cc%14[nH]%13)cc%12[nH]%11)cc%10[nH]9)CC8)[nH]c7c6)[nH]c5c4)[nH]c3c2)CC1` [DB3P(3)] are 47 ± 14%, roughly 100%, ~ 100% and 200 ± 50 nM.
The corresponding values for `CCCn1cc(NC(=O)CCCC(=O)Nc2cc(-c3nc4ccc(-c5nc6ccc(N7CCN(C)CC7)cc6[nH]5)cc4[nH]3)n(CCC)c2)cc1-c1nc2ccc(-c3nc4ccc(N5CCN(C)CC5)cc4[nH]3)cc2[nH]1` [DB2Py(3)] are roughly 100%, 70 ± 11%, ~ 100% and 410 ± 90 nM.
Turning to `CCCn1cc(NC(C)=O)cc1-c1nc2ccc(-c3nc4ccc(N5CCN(C)CC5)cc4[nH]3)cc2[nH]1` [MB2Py(Ac)], the remaining activity at 500 µM in assay [1] and in assay [2] was roughly 100% throughout. Also, the “PARP2 % of residual activity (500 μM)” value in assay [3] was ~ 100%. Besides, the IC50 in assay [4] worked out at 5000 ± 2000 nM.
In the case of `CCCn1cc(NC(=O)CC(=O)Nc2cc(-c3nc4ccc(-c5nc6ccc(N7CCN(C)CC7)cc6[nH]5)cc4[nH]3)n(CCC)c2)cc1-c1nc2ccc(-c3nc4ccc(N5CCN(C)CC5)cc4[nH]3)cc2[nH]1` [DB2Py(1)], the remaining activity at 500 µM was roughly 100% in assay [1] and 55 ± 3% in assay [2]. Further, the “PARP2 % of residual activity (500 μM)” value in assay [3] was ~ 100%. Also, in assay [4], the IC50 was found to be 250 ± 50 nM.
The corresponding values for `CN1CCN(c2ccc3nc(-c4ccc5nc(-c6ccc7nc(CN)[nH]c7c6)[nH]c5c4)[nH]c3c2)CC1` [MB3] are 65 ± 15%, roughly 100%, ~ 100% and 700 ± 50 nM.
Regarding `CN1CCN(c2ccc3nc(-c4ccc5nc(-c6ccc7nc(CNC(=O)CN8CCN(CC(=O)NCc9nc%10ccc(-c%11nc%12ccc(-c%13nc%14ccc(N%15CCN(C)CC%15)cc%14[nH]%13)cc%12[nH]%11)cc%10[nH]9)CC8)[nH]c7c6)[nH]c5c4)[nH]c3c2)CC1` [DB3P(1)], the remaining activity at 500 µM is 70 ± 12% in assay [1] and roughly 100% in assay [2]. In addition, the “PARP2 % of residual activity (500 μM)” value in assay [3] was ~ 100%. Further, the IC50 in assay [4] came out at 100 ± 50 nM.
The corresponding values for `CN1CCN(c2ccc3nc(-c4ccc5nc(-c6ccc7nc(CNC(=O)CCCCN8CCN(CCCCC(=O)NCc9nc%10ccc(-c%11nc%12ccc(-c%13nc%14ccc(N%15CCN(C)CC%15)cc%14[nH]%13)cc%12[nH]%11)cc%10[nH]9)CC8)[nH]c7c6)[nH]c5c4)[nH]c3c2)CC1` [DB3P(4)] are 48 ± 15%, roughly 100%, ~ 100% and 150 ± 30 nM.

For the origin of these results see article PMC12799362, “The effect of dimeric bisbenzimidazoles on the activity of DNA repair enzymes TDP1, TDP2, PARP1 and PARP2” (Vavilov Journal of Genetics and Breeding, 2025).
